Earlier results, collected in paper PMC7527728, “CPSF6-Dependent Targeting of Speckle-Associated Domains Distinguishes Primate from Nonprimate Lentiviral Integration” (mBio, 2020).

Assays:
HIV-1 capsid hexamers = tested on: HIV-1 capsid hexamers; design: method as in PMID 25518861; details: more efficiently than the NTD
N74D capsid nanotubes = details: in vitro
Text: (§1) The 5.2% reduction in genic HIV-1 integration targeting in Jurkat CKD cells was noticeably less than the 22.1% reduction in CKO cells (compare Fig. 4A and Fig. 3A). While the reason for this difference is unclear, it seemed possible that the residual level of CPSF6 protein that persisted in CKD cells (Fig. 2D) could be a contributing factor. We accordingly next mapped integration sites of N74D and A77V capsid mutant viruses in Jurkat T cells. N74D and A77V capsid nanotubes bound CPSF6 ∼5% and 30%, respectively, as efficiently as WT capsid complexes in vitro ([43]).

A77V capsid nanotubes = details: in vitro, as efficiently as WT capsid
Text: as §1

CPSF6 peptide: CPSF6 peptide binding HIV-1 capsid hexamers, ref 45
binding to capsid hexamers relative to NTD (HIV-1 capsid hexamers): approximately 10 -fold

CPSF6: cleavage and polyadenylation specificity factor 6
CPSF6 binding relative to WT capsid complexes (N74D capsid nanotubes): ~5%
CPSF6 binding relative to WT capsid complexes (A77V capsid nanotubes): ~30%
